The subject of test [1] is MUC1 expression in MCF10A cells. Briefly: MUC1 expression by immunoblot of whole-cell lysates after stimulation. In kind it is cell-based. Here is the method:
FIG. 2A is a pair of photographs of immunoblots depicting the induction of MUC1 expression following heregulin (HRG) treatment. MCF10A cells were cultured without (“0”) and with HRG (20 ng/mL) for 24 (“24”) and 48 (“48”) hours. Cells were harvested at the indicated time points and lysed for western blot analysis. Whole-cell lysates were subjected to sodium dodecyl sulfate polyacrylamide gel electrophoresis (SDS-PAGE) under reducing conditions and proteins were detected (immunoblotted, “IB”) using antibodies specific for MUC1-C and β-actin (top and bottom photographs, respectively). The relative positions (e.g., the molecular weights) of the proteins are reported in kilodaltons (kDa) and indicated to the left of each of the immunoblots (e.g., 25 kDa or 45 kDa). “HRG” indicates treatment with heregulin.
FIG. 2C is a photograph of an immunoblot depicting the induction of MUC1 expression following IL-6 treatment. MCF10A cells were treated without (“0”) and with IL-6 (20 ng/mL) and then cultured at 37° C. for 24 (“24”) and 48 (“48”) hours. Cells were harvested at the indicated time points and lysed for western blot analysis. Whole-cell lysates were subjected to SDS-PAGE under reducing conditions and proteins were detected (immunoblotted, “IB”) using antibodies specific for MUC1-C. The relative positions (e.g., the molecular weights) of the proteins are reported in kilodaltons (kDa) and indicated to the left of the immunoblot. “IL-6” indicates IL-6 treatment.
Heregulin treatment of cells results in (i) activation of ErbB2, ErbB3, and ErbB4 and (ii) induction of the formation of complexes between these receptors and MUC1. To assess if MUC1 is regulated by heregulin in normal cells, the induction of MUC1 expression by heregulin treatment was assessed in the immortalized, but non-cancer breast cell line MCF10A. […] As a control for loading, β-actin was detected using anti-β-actin (Sigma, St. Louis, Mo.). […]
(Immunoblotting shows a protein as a band on a membrane.)

Another test addresses GST-STAT3 (Homo sapiens, UniProt P40763). Put plainly: In vitro GST pull-down binding assay. The settings on record: purified His-tagged MUC1-CD, GST as control, immunoblot. How it is done:
The binding of MUC1 to HSF1 could be direct or indirect, for example, through a third protein. To determine if the interaction between MUC1 and HSF1 is a direct, physical interaction, in vitro binding assays was performed. GST- and GST-STAT3 polypeptides were incubated with purified His-tagged MUC1-CD (similar to GST-HSF1-His-MUC1 experiments described above). The protein mixtures were then incubated with glutathione beads, which bind to the GST proteins and associated binding partners if present. The glutathione bead adsorbates were washed and immunoblotted with antibodies specific for His tags or to MUC1-C (as described above).

Sequence of GST-STAT3 (P40763 whole entry): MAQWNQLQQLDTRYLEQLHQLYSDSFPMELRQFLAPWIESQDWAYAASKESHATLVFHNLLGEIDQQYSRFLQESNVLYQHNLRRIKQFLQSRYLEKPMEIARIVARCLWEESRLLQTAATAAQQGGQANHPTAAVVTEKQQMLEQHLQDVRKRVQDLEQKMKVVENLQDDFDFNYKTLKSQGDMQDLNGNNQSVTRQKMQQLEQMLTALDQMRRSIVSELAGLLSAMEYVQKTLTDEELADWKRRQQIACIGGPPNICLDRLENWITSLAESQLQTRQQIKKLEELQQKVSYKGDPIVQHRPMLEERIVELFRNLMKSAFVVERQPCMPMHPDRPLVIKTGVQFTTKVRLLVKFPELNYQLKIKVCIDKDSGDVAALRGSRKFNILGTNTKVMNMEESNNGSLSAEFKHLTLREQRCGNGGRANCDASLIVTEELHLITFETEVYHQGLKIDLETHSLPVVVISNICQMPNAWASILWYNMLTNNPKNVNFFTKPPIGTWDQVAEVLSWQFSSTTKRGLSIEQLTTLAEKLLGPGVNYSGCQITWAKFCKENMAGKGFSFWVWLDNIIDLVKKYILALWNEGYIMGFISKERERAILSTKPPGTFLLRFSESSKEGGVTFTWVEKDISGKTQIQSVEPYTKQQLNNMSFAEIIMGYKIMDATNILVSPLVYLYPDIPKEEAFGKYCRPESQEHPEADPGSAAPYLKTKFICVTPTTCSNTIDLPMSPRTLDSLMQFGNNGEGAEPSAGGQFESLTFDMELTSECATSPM

“IL-6: inflammatory cytokine IL-6 (R&D Systems) that activates STAT3 through the Janus kinases”: the MUC1 expression result is “induce both STAT3 phosphorylation (activation) and MUC1 expression” in test [1] (0.1% serum overnight, 20 ng/mL IL-6, expected result); “induces MUC1 expression” in test [1] (IL-6 20 ng/mL, 24 and 48 hours (FIG. 2C)).

B1: HRG: heregulin (HRG) (Calbiochem-Novabiochem), ligand activating ErbB2, ErbB3 and ErbB4 (protein, listed as Homo sapiens)
chain: MEIYSPDMSEVAAERSSSPSTQLSADPSLDGLPAAEDMPEPQTEDGRTPGLVGLAVPCCACLEAERLRGCLNSEKICIVPILACLVSLCLCIAGLKWVFVDKIFEYDSPTHLDPGGLGQDPIISLDATAASAVWVSSEAYTSPVSRAQSESEVQVTVQGDKAVVSFEPSAAPTPKNRIFAFSFLPSTAPSFPSPTRNPEVRTPKSATQPQTTETNLQTAPKLSTSTSTTGTSHLVKCAEKEKTFCVNGGECFMVKDLSNPSRYLCKCPNEFTGDRCQNYVMASFYSTSTPFLSLPE
As to B1, in test [1] (20 ng/mL HRG, anti-MUC1-C immunoblot (FIG. 2A)), the MUC1 protein expression result is on record as “increase in MUC1 protein expression”.

B2: His-tagged MUC1: purified His-tagged MUC1 cytoplasmic domain (MUC1-CD, SEQ ID NO:2) (protein, listed as Homo sapiens)
chain: CQCRRKNYGQLDIFPARDTYHPMSEYPTYHTHGRYVPPSSTDRSPYEKVSAGNGGSSLSYTNPAVAAASANL
modifications: His tag
In the case of B2, the “binding to GST-STAT3 (glutathione bead adsorbates)” value with GST-STAT3 is “present in GST-STAT3 adsorbates but not GST-adsorbates”.

The values above are taken from US7972870B2, “Methods and compositions relating to the regulation of MUC1 by HSF1 and STAT3” (Dana-Farber Cancer Institute, Inc., priority 2007, dated 2011).
